# In ChEMBL document CHEMBL5505952, “Targeting SARS-CoV-2 entry processes: The promising potential and future of host-targeted small-molecule inhibitors” (Eur J Med Chem, 2024):
# pEC50, pIC50, pKd: −log10 of the molar value. *1 amine or outer side, *2 acyl side, *3 side chain or, on linkers, in order; H or OH if unused. Where a SMILES comes first, the peptide text is derived from it. [ ]: non-standard residue; d: D form. The star is where a group is joined. X1 = N=C(N)NCCC[C@H](N[*:1])C(=O)c1nc2ccc(C(=O)[*:2])cc2s1; Nle = CCCC[C@H](N)C(=O)O; Cbz = O=C(OCc1ccccc1)*
# Key:
# [1] = target: Neuropilin-1 (Homo sapiens, UniProt O14786); experiment: Inhibition of [125I]-VEGF-A165 binding to NRP1 (unknown origin) in HUVEC cells; type: cell-based
# Neuropilin-1, sequence (O14786 whole entry): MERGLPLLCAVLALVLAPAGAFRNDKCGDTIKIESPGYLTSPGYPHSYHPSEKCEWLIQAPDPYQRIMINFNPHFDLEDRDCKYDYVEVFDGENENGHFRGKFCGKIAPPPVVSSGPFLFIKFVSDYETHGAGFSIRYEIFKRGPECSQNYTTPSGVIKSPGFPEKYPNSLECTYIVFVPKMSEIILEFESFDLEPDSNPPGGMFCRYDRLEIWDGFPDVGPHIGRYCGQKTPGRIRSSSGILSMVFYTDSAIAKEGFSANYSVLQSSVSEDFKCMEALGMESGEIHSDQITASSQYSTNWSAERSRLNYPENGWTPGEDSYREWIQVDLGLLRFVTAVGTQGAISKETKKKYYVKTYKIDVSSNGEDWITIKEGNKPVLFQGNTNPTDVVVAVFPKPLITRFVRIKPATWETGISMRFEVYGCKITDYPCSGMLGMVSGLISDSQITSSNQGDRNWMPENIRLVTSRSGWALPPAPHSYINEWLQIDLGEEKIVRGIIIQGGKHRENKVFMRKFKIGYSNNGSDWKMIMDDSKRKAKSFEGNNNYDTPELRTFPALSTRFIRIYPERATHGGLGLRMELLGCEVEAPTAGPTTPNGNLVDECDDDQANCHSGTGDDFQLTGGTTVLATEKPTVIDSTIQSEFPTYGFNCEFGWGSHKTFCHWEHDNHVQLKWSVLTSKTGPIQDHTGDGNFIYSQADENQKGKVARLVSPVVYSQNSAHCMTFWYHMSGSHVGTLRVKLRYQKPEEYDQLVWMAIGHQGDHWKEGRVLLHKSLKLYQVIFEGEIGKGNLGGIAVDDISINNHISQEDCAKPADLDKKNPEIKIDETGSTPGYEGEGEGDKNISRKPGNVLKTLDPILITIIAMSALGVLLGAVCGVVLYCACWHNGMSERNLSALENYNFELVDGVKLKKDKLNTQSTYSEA
# [2] = test system: SARS-CoV-2; experiment: Antiviral activity against VSV-S pseudotyped SARS-CoV-2 infected in human Calu-3 cells assessed as inhibition of viral growth; type: functional, organism-based; conditions: Severe acute respiratory syndrome coronavirus 2, Calu-3
# [3] = test system: SARS-CoV-2; experiment: Antiviral activity against SARS-CoV-2 WA1/2020 infected in human Calu-3 cells preincubated for 2 hrs followed by viral infection and measured after 48 hrs by microscopy analysis; type: functional, organism-based; conditions: Severe acute respiratory syndrome coronavirus 2, WA1/2020, Calu-3
# [4] = target: T1, 1-phosphatidylinositol 3-phosphate 5-kinase (Homo sapiens, UniProt Q9Y2I7); experiment: Binding affinity to N-terminal His-tagged human PIKfyve expressed in Sf9 cells assessed as dissociation constant
# T1 sequence (Q9Y2I7 whole entry): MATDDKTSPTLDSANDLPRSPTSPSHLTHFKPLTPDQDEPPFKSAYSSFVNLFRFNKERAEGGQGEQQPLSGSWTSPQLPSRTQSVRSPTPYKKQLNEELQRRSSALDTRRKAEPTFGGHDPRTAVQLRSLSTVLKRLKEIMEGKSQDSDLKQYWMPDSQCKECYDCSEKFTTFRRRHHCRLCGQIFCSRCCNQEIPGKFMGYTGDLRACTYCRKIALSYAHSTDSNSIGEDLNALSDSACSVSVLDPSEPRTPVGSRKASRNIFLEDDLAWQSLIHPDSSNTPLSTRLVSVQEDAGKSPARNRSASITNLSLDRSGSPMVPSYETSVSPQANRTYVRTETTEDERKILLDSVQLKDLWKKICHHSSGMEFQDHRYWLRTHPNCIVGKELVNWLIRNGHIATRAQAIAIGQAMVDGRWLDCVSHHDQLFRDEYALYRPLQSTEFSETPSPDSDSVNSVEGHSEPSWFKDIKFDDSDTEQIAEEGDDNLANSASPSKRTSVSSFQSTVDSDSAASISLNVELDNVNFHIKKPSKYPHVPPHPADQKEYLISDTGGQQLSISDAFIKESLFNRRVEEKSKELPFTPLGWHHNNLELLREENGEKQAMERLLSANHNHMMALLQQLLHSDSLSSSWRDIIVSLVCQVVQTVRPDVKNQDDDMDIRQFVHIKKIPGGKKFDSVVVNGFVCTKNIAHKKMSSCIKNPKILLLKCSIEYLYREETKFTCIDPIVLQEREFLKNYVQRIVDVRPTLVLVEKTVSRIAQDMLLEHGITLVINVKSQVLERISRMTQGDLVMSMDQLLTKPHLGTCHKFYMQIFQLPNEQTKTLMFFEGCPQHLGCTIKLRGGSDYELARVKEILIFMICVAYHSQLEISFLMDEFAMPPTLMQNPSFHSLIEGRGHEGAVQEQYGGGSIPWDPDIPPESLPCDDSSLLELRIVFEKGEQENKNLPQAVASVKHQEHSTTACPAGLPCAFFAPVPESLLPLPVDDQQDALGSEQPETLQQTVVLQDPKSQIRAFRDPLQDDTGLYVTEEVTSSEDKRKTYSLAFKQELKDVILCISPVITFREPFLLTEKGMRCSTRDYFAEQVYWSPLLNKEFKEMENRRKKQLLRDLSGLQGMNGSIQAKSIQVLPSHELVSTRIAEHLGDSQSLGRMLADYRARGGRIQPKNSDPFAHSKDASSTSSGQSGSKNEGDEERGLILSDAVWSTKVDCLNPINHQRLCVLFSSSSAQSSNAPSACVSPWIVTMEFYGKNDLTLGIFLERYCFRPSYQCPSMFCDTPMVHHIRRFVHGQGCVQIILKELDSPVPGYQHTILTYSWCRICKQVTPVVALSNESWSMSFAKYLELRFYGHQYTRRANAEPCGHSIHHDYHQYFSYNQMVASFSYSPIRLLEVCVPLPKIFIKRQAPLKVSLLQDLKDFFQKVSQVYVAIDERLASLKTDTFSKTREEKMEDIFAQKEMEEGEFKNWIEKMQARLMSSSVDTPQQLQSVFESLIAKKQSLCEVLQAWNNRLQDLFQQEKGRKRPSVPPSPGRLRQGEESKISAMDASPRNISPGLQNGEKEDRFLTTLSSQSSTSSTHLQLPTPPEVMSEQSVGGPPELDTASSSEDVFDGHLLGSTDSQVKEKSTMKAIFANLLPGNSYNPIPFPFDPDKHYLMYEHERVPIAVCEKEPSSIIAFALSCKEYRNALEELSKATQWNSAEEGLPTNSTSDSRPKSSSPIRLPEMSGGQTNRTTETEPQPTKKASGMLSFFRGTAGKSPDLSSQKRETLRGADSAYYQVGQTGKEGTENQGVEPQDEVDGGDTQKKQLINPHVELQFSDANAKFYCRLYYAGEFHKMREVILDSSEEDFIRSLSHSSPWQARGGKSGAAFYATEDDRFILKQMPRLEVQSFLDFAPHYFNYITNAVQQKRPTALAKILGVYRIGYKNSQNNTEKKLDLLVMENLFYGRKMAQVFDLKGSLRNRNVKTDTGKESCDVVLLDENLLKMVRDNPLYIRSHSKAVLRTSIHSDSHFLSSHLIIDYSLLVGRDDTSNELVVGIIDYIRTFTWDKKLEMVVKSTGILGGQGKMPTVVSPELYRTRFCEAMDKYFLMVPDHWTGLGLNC
# [5] = test system: SARS-CoV-2; type: functional, organism-based; conditions: Severe acute respiratory syndrome coronavirus 2, Vero C1008, 72 h
# [6] = test system: SARS-CoV-2; type: functional, organism-based; conditions: Severe acute respiratory syndrome coronavirus 2, NRC-03-nhCoV, Vero C1008, 72 h
# [7] = test system: RAW264.7; experiment: Antiinflammatory activity in mouse RAW264.7 cells assessed as effect on LPS induced IL-12p40 level measured after 24 hrs by RT-qPCR analysis; type: functional, cell-based; conditions: RAW264.7, 24 h
# [8] = target: T1, 1-phosphatidylinositol 3-phosphate 5-kinase; experiment: Inhibition of PIKfyve (unknown origin)
# [9] = test system: SARS-CoV-2; type: functional, organism-based; conditions: Severe acute respiratory syndrome coronavirus 2, Vero C1008, 48 h
# [10] = test system: SARS-CoV-2; experiment: microbe, parasite or virus in culture; conditions: Severe acute respiratory syndrome coronavirus 2, Vero C1008, 24 h
# [11] = test system: SARS-CoV-2; experiment: microbe, parasite or virus in culture; conditions: Severe acute respiratory syndrome coronavirus 2, Huh-7
# [12] = test system: SARS-CoV-2; type: functional, organism-based; conditions: Severe acute respiratory syndrome coronavirus 2, Vero C1008, 48 h; remark: listed apart in the source
# [13] = test system: SARS-CoV-2; experiment: Antiviral activity against SARS-CoV-2 USA-WA1/2020 infected in african green monkey Vero C1008 cells assessed as reduction in viral replication by qRT-PCR analysis; type: functional, organism-based; conditions: Severe acute respiratory syndrome coronavirus 2, USA-WA1/2020, Vero C1008
# [14] = test system: SARS-CoV-2; type: functional, organism-based; conditions: Severe acute respiratory syndrome coronavirus 2, Omicron B.1.617.2 delta, 293T/ACE2, 48 h
# [15] = test system: SARS-CoV-2; type: functional, organism-based; conditions: Severe acute respiratory syndrome coronavirus 2, USA-WA1/2020, Huh-7
# [16] = test system: SARS-CoV-2; experiment: Antiviral activity against SARS-CoV-2 USA-WA1/2020 infected in human Calu-3 cells assessed as reduction in viral replication by qRT-PCR analysis; type: functional, organism-based; conditions: Severe acute respiratory syndrome coronavirus 2, USA-WA1/2020, Calu-3
# [17] = test system: SARS-CoV-2; experiment: microbe, parasite or virus in culture; conditions: Severe acute respiratory syndrome coronavirus 2, Huh-7; remark: listed apart in the source
# [18] = test system: SARS-CoV-2; experiment: microbe, parasite or virus in culture; conditions: Severe acute respiratory syndrome coronavirus 2, USA-WA1/2020, Vero 76, 72 h
# [19] = test system: SARS-CoV-2; experiment: microbe, parasite or virus in culture; conditions: Severe acute respiratory syndrome coronavirus 2, Calu-3, 48 h
# [20] = test system: SARS-CoV-2; experiment: microbe, parasite or virus in culture; conditions: Severe acute respiratory syndrome coronavirus 2, Vero C1008, 24 h; remark: listed apart in the source
# [21] = test system: SARS-CoV-2; type: functional, organism-based; conditions: Severe acute respiratory syndrome coronavirus 2, Huh-7
# [22] = test system: SARS-CoV-2; type: functional, organism-based; conditions: Severe acute respiratory syndrome coronavirus 2, Huh-7; remark: listed apart in the source
# [23] = target: T2, Procathepsin L (Homo sapiens, UniProt P07711); experiment: Inhibition of Cathepsin L (unknown origin)
# T2 sequence (P07711 whole entry): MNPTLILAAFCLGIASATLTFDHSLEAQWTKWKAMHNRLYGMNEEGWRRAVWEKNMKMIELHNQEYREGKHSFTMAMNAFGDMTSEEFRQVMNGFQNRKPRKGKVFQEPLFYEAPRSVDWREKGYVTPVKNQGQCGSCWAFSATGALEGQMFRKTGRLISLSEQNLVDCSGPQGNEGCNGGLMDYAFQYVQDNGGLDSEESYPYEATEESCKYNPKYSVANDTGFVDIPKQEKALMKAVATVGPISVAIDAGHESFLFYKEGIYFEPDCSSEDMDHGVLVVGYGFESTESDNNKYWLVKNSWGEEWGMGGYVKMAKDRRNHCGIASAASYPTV
# [24] = test system: SARS-CoV-2; type: functional, organism-based; conditions: Severe acute respiratory syndrome coronavirus 2, Wuhan-Hu-1, Vero C1008
# [25] = target: T2, Procathepsin L; experiment: Inhibition of human recombinant Cathepsin L using Z-Phe-Arg-AMC as substrate incubated for 60 mins by fluorescence spectrophotometric analysis
# [26] = target: Replicase polyprotein 1ab (Severe acute respiratory syndrome coronavirus 2, UniProt P0DTD1); experiment: Inhibition of SARS-Cov-2 Main protease by FRET assay
smiles,measurement,setting,value
Cc1nc(N2CCOCC2)ncc1-c1cc(=O)[nH]c(Nc2ccccc2)n1,pIC50,[1],9.22
CC(=O)N1CCC[C@H]1C(=O)N[C@@H](CCC(N)=O)C(=O)N[C@@H](Cc1ccccc1)C(=O)N[C@@H](CCCNC(=N)N)C(=O)c1nc2ccccc2s1,pEC50,[2],9.07
same,pIC50,[3],6.98
Cc1ccc(NC(=O)c2cccc(C(F)(F)F)c2)cc1Nc1nc(-c2ccncc2)c2[nH]ccc2n1,pKd,[4],< 4.52
same,pEC50,[5],4.91
N=C(N/N=C/c1ccncc1)c1nonc1NCNc1nonc1C(=N)N/N=C/c1ccncc1,pIC50,[6],7.80
Cc1ncc(-c2ccc(C3=CCN(C(C)C)CC3)nc2)cc1NC(=O)c1ccc2[nH]c(C)c(C)c2n1,pIC50,[7],8.70
CC[C@@H](C)[C@H](NC(C)=O)C(=O)N[C@@H](CCC(N)=O)C(=O)N[C@@H](Cc1ccccc1)C(=O)N[C@@H](CCCNC(=N)N)C(=O)c1nc2ccccc2s1,pEC50,[2],8.44
same,pIC50,[3],6.99
CCc1c(C)[nH]c2ccc(C(=O)Nc3cncc(-c4ccc(N5C[C@@H](C)O[C@@H](C)C5)nc4)c3)nc12,pIC50,[7],8.62
Nc1ncc2c(n1)Cc1c([nH]c3ccc(-c4ccc(F)cc4)cc13)CC2,pIC50,[8],8.03
same,pIC50,[9],7.13
Cn1nc(C(C)(C)C)cc1C(=O)N[C@@H](Cc1cccc(Cl)c1)C(=O)NCC#N,pEC50,[10],6.85
CCCC[C@@H](C=O)NC(=O)[C@H](CC(C)C)NC(=O)[C@H](CC(C)C)NC(C)=O (Ac-Leu-Leu-[Nle]-aldehyde),pEC50,[11],5.51
CC(=O)N[C@@H](CO)C(=O)N[C@@H](CCCCN)C(=O)N[C@@H](CC(C)C)C(=O)N[C@@H](CCCNC(=N)N)C(=O)c1nc2ccc(C(=O)N[C@H](C(N)=O)C(C)C)cc2s1 (Ac-SKL[X1]V-NH2),pEC50,[2],6.31
same,pEC50,[12],6.51
O=C[C@H](Cc1ccc(O)cc1)NC(=O)[C@H](Cc1ccccc1)NC(=O)OCc1ccccc1 (Cbz-Phe-Tyr-aldehyde),pEC50,[10],6.21
CC(C)[C@H](NC(=O)OCc1ccccc1)C(=O)N[C@H](C=O)Cc1ccccc1 (Cbz-Val-Phe-aldehyde),pEC50,[10],5.81
CCOC(=O)[C@H]1O[C@@H]1C(=O)N[C@@H](CC(C)C)C(=O)NCCC(C)C [ALOXISTATIN],pEC50,[10],6.57
N=C(N)NCCCCC(=O)Nc1cc(C(F)(F)F)cc(NC(=O)c2cc(C(=O)Nc3cc(C(F)(F)F)cc(NC(=O)CCCCNC(=N)N)c3O[C@@H]3CCNC3)ncn2)c1O[C@@H]1CCNC1 [BRILACIDIN],pIC50,[13],4.92
same,pIC50,[14],4.92
same,pIC50,[15],4.92
same,pIC50,[16],4.92
CCCC[C@@H](C=O)NC(=O)[C@H](CC(C)C)NC(=O)OCc1ccccc1 [CALPEPTIN],pEC50,[17],4.53
same,pEC50,[18],5.99
C#Cc1cccc(Nc2ncnc3cc(OCCOC)c(OCCOC)cc23)c1 [ERLOTINIB],pEC50,[19],< 4.70
same,pEC50,[20],< 4.70
CC(C)C[C@@H](C=O)NC(=O)[C@H](CC(C)C)NC(=O)[C@H](CC(C)C)NC(=O)OCc1ccccc1 [MG-132] (Cbz-Leu-Leu-Leu-aldehyde),pEC50,[21],6.67
same,pEC50,[22],6.68
same,pIC50,[23],7.91
CCN(CC)CCNC(=O)c1c(C)[nH]c(/C=C2\C(=O)Nc3ccc(F)cc32)c1C [SUNITINIB],pEC50,[19],5.54
same,pEC50,[20],5.62
N[C@H]1C(=O)N[C@@H]2Cc3ccc(c(Cl)c3)Oc3cc4cc(c3O)Oc3ccc(cc3Cl)[C@@H](O)[C@@H]3NC(=O)[C@H](NC(=O)[C@@H]4NC(=O)[C@@H](NC2=O)c2cc(O)cc(c2)Oc2cc1ccc2O)c1ccc(O)c(c1)-c1c(O)cc(O)cc1[C@@H](C(=O)O)NC3=O [TEICOPLANIN AGLYCON],pIC50,[24],5.69
same,pIC50,[25],3.68
same,pIC50,[26],5.84
